Reference: US11426443B2, “Compositions and methods for invasive and non-invasive procedural skincare” (Alastin Skincare, Inc., priority 2016, dated 2022)

Tests used:
[1] = assay type: physicochemical
Excerpt: Certain components of the formulation tend to be difficult to solubilize in conventional formulations. […] For topical compositions containing from about 0.05% by weight to about 0.1% by weight phosphatidyl serine and/or from about 0.05% by weight to about 0.1% by weight oleuropein, caprylyl methicone in an amount of from about 0.5% by weight to about 1% by weight of caprylyl methicone can solubilize these components in an anhydrous formulation.
In Formula 8B, the amount of palmitoyl tripeptide was increased to 3%, and phosphatidylserine (lipoid PS P 70) was added, along with oleuropein 80% at 0.025%. […] In Formula 9B, the concentration of heptyl undecylenate was lowered to 2.5%, caprylyl methicone was added to solubilize the Lipoind PS P 70, which was increased to 0.05%, and oleuropein 80% was increased to 0.05%. The viscosity for Formula 9B was approximately 5000 cPs.

[2] = system: MMP-2; conditions: wound chamber, vs control, cited from earlier work
[3] = system: VEGF; conditions: pg VEGF/ng DNA as a function of GHK ng/mL; FIG. 11; cited from earlier work

| solubility in heptyl undecylenate [1] | Compound | gelatinolytic activity (peaks area/μg protein), MMP-2 ([2]; from day 3, peaking at days 18-22, FIG. 9) | gelatinolytic activity (peaks area/μg protein) ([2]; from day 12, peaking at days 18-22, FIG. 10) | secretion of VEGF [3] |
| --- | --- | --- | --- | --- |
| poor solubility | phosphatidylserine [Lipoid PS P70] | – | – | – |
| – | glycine-histidine-lysine [GHK] | far greater degree than control | far greater degree than control | dose-dependently increases |
| poor solubility | C/C=C1/[C@H](O[C@@H]2O[C@H](CO)[C@@H](O)[C@H](O)[C@H]2O)OC=C(C(=O)OC)[C@H]1CC(=O)OCCc1ccc(O)c(O)c1 [oleuropein] | – | – | – |
